{
  "source": "patent US11773094B2",
  "about": "“Farnesoid X receptor agonists and uses thereof” (Metacrine, Inc., priority 2018, dated 2023)",
  "data": [
    {"molecular_target": "T1, hFXR (Homo sapiens, UniProt Q96RI1)", "T1 construct": "expressed in transfected cells; host or cells: CV-1 cells", "T1 sequence (Q96RI1 1-486)": "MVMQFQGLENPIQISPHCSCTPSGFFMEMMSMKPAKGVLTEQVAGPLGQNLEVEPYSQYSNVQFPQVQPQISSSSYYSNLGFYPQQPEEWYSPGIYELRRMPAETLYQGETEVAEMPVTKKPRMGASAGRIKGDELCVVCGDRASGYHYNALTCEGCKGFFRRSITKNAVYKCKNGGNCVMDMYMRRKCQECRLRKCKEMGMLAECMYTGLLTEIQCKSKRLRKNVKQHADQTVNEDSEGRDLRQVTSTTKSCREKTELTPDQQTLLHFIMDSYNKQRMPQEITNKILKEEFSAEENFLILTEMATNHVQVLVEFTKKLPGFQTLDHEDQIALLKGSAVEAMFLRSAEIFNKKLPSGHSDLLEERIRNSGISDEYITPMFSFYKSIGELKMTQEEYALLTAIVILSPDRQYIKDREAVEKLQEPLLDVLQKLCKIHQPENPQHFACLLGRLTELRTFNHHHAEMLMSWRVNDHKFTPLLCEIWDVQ", "T1 sequence (P19793 1-462 partner)": "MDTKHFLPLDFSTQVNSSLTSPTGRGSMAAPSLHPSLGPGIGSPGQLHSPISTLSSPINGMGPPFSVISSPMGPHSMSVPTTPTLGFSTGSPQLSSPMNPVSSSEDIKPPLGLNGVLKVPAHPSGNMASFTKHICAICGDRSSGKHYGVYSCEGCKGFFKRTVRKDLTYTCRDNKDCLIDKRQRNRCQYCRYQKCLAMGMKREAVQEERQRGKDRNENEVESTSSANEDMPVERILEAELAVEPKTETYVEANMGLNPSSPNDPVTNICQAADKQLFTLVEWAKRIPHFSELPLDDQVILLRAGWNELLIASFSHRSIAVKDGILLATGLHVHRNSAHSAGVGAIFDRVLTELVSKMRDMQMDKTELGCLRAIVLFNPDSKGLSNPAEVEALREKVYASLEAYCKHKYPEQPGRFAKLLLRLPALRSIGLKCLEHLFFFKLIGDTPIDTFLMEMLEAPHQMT", "experiment": "In Vitro FXR Assay (TK): TK-ECRE-luc reporter in transfected CV-1 cells", "assay_type": "cell-based", "conditions": "CV-1 cells transfected with hFXR, hRXR, pCMX-YFP, 18 hrs incubation, luminescence", "procedure": "Example B-1: In Vitro FXR Assay (TK)\nCV-1 cells were seeded at a density of 2,000,000 cells in a T175 flask with DMEM+10% charcoal double-stripped FBS and incubated at 37° C. in 5% CO2 for 18 h (O/N).\nAfter 18 h of incubation, the medium in the T175 flask was changed with fresh DMEM+10% charcoal super-stripped serum. In a polypropylene tube, 2500 μL OptiMEM (Life Technologies, Cat #31985-062) was combined with expression plasmids for hFXR, hRXR, TK-ECRE-luc and pCMX-YFP. The tube was then briefly vortexed and incubated at room temperature for 5 minutes. Transfection reagent (X-tremeGENE HP from Roche, Cat #06 366 236 001) was added to the OptiMEM/plasmid mixture vortexed and incubated at room temperature for 20 minutes. Following incubation, the transfection reagent/DNA mixture complex was added to cells in the T175 flask and the cells were incubated at 37° C. in 5% CO2 for 18 h (O/N).\nCompounds were serially diluted in DMSO and added to transfected CV-1 cells. The cells were then incubated for 18 hrs. The next day cells were lysed and examined for luminescence.", "units": {"EC50": "nM"}, "values": [
      {"smiles": "CCC(C)(CC)n1cc(-c2ccnc(N(CC34CCC(c5ccc(OC)c(C)c5)(CC3)CC4)C(=O)[C@H]3CC[C@H](OC(=O)N4CCC(O)CC4)CC3)c2)cn1", "note": "[Compound 4.06, 4-(((4-(4-Methoxy-3-methylphenyl)bicyclo[2.2.2]octan-1-yl)methyl)(4-(1-(3-methylpentan-3-yl)-1H-pyrazol-4-yl)pyridin-2-yl)carbamoyl)cyclohexyl trans-4-hydroxypiperidine-1-carboxylate]", "EC50": "≤ 10"},
      {"smiles": "COc1ccc(C23CCC(CN(c4cc(-c5cnn(C(C)(C)C)c5)ccn4)C(=O)[C@H]4CC[C@H](OC(=O)N5CCC(N(C)C)C5)CC4)(CC2)CC3)cc1C", "note": "(stereo partly drawn) [Compound 2.26, 4-((4-(1-(tert-Butyl)-1H-pyrazol-4-yl)pyridin-2-yl)((4-(4-methoxy-3-methylphenyl)bicyclo[2.2.2]octan-1-yl)methyl)carbamoyl)cyclohexyl 3-(dimethylamino)pyrrolidine- trans-1-carboxylate]", "EC50": "≤ 10"},
      {"smiles": "COc1ncc(C23CCC(CN(c4cc(-c5cnn(C(C)(C)C)c5)ccn4)C(=O)[C@H]4CC[C@H](OC(=O)N5CC(O)C5)CC4)(CC2)CC3)cc1C", "note": "[Compound 3.05, 4-((4-(1-(tert-Butyl)-1H-pyrazol-4-yl)pyridin-2-yl)((4-(6-methoxy-5-methylpyridin-3-yl)bicyclo[2.2.2]octan-1-yl)methyl)carbamoyl) (trans-cyclohexyl) 3-hydroxyazetidine-1-carboxylate]", "EC50": "≤ 10"},
      {"smiles": "COc1ccc(C23CCC(CN(c4cncc(-c5cnn(C(C)(C)C)c5)c4)C(=O)[C@H]4CC[C@H](OC(=O)N5CC(O)C5)CC4)(CC2)CC3)cc1C", "note": "[Compound 1.14, 4-((5-(1-(tert-Butyl)-1H-pyrazol-4-yl)pyridin-3-yl)((4-(4-methoxy-3-methylphenyl)bicyclo[2.2.2]octan-1-yl)methyl)carbamoyl) (trans-cyclohexyl) 3-hydroxyazetidine-1-carboxylate]", "EC50": "≤ 10"},
      {"smiles": "COc1ccc(C23CCC(CN(c4cc(-c5cnn(C(C)(C)C)c5)ccn4)C(=O)[C@H]4CC[C@H](OC(=O)N5CC[C@H]5CO)CC4)(CC2)CC3)cc1C", "note": "[Compound 2.21, (S)-4-((4-(1-(tert-Butyl)-1H-pyrazol-4-yl)pyridin-2-yl)((4-(4-methoxy-3-methylphenyl)bicyclo[2.2.2]octan-1-yl)methyl)carbamoyl)cyclohexyl 2-(hydroxymethyl)azetidine- trans-1-carboxylate]", "EC50": "≤ 10"},
      {"smiles": "CCC(C)(CC)n1cc(-c2ccnc(N(CC34CCC(c5ccc(OC)c(C)c5)(CC3)CC4)C(=O)[C@H]3CC[C@H](OC(=O)N4CC(O)C4)CC3)c2)cn1", "note": "[Compound 4.04, 4-(((4-(4-Methoxy-3-methylphenyl)bicyclo[2.2.2]octan-1-yl)methyl)(4-(1-(3-methylpentan-3-yl)-1H-pyrazol-4-yl)pyridin-2-yl)carbamoyl)cyclohexyl trans-3-hydroxyazetidine-1-carboxylate]", "EC50": "≤ 10"},
      {"smiles": "COc1ccc([C@H]2CC[C@H](CN(c3cc(-c4cnc(C(C)(C)C)s4)ccn3)C(=O)[C@H]3CC[C@H](OC(=O)N4CCC(O)CC4)CC3)CC2)cc1C", "note": "[Compound 1.03, trans-4-((4-(2-(tert-Butyl)thiazol-5-yl)pyridin-2-yl)(((trans)-4-(4-methoxy-3-methylphenyl)cyclohexyl)methyl)carbamoyl) cyclohexyl 4-hydroxypiperidine-1-carboxylate]", "EC50": "10 to 1000"},
      {"smiles": "COc1c(C)cc(C23CCC(CN(c4nccc(-c5cnn(C(C)(C)C)c5)n4)C(=O)[C@H]4CC[C@H](OC(=O)N5CC(O)C5)CC4)(CC2)CC3)cc1C", "note": "[Compound 3.15, 4-((4-(1-(tert-Butyl)-1H-pyrazol-4-yl)pyrimidin-2-yl)((4-(4-methoxy-3,5-dimethylphenyl)bicyclo[2.2.2]octan-1-yl)methyl)carbamoyl) (trans-cyclohexyl) 3-hydroxyazetidine-1-carboxylate]", "EC50": "10 to 1000"},
      {"smiles": "COc1ccc([C@H]2CC[C@H](CN(c3cc(-c4cnn(C(C)(C)C)c4)ccn3)C(=O)[C@H]3CC[C@H](OC(=O)N4CC(O)C4(C)C)CC3)CC2)cc1C", "note": "(stereo partly drawn) [Compound 1.09, trans-4-((4-(1-(tert-Butyl)-1H-pyrazol-4-yl)pyridin-2-yl)((trans-4-(4-methoxy-3-methylphenyl)cyclohexyl)methyl)carbamoyl) cyclohexyl 3-hydroxy-2,2-dimethylazetidine-1-carboxylate]", "EC50": "≤ 10"},
      {"smiles": "COc1ccc(C23CCC(CN(c4cc(-c5cnn(C(C)(C)C)c5)ccn4)C(=O)[C@H]4CC[C@H](OC(=O)NC5CCS(=O)(=O)CC5)CC4)(CC2)CC3)cc1C", "note": "[Compound 2.39, 4-((4-(1-(tert-Butyl)-1H-pyrazol-4-yl)pyridin-2-yl)((4-(4-methoxy-3-methylphenyl)bicyclo[2.2.2]octan-1-yl)methyl)carbamoyl) cyclohexyl trans-(1,1-dioxidotetrahydro-2H-thiopyran-4-yl)carbamate]", "EC50": "10 to 1000"},
      {"smiles": "COc1ccc(C23CCC(CN(c4cc(-c5cnc(C(C)(C)C)s5)ccn4)C(=O)[C@H]4CC[C@H](OC(=O)N5CC(C)(O)C5)CC4)(CC2)CC3)cc1C", "note": "[Compound 2.01, 4-((4-(2-(tert-Butyl)thiazol-5-yl)pyridin-2-yl)((4-(4-methoxy-3-methylphenyl)bicyclo[2.2.2]octan-1-yl)methyl)carbamoyl) (trans-cyclohexyl) 3-hydroxy-3-methylazetidine-1-carboxylate]", "EC50": "≤ 10"},
      {"smiles": "COc1ccc([C@H]2CC[C@H](CN(c3cc(-c4cnc(C(C)(C)C)s4)ccn3)C(=O)[C@H]3CC[C@H](OC(=O)N4CC(O)C4)CC3)CC2)cc1C", "note": "[Compound 1.01, trans-4-((4-(2-(tert-Butyl)thiazol-5-yl)pyridin-2-yl)(((trans)-4-(4-methoxy-3-methylphenyl)cyclohexyl)methyl)carbamoyl) cyclohexyl 3-hydroxyazetidine-1-carboxylate]", "EC50": "10 to 1000"},
      {"smiles": "COc1ccc(C23CCC(CN(c4cc(-c5cnc(C(C)(C)C)s5)ccn4)C(=O)[C@H]4CC[C@H](OC(=O)N5CCC(N(C)C)C5)CC4)(CC2)CC3)cc1C", "note": "(stereo partly drawn) [Compound 2.09, 4-((4-(2-(tert-Butyl)thiazol-5-yl)pyridin-2-yl)((4-(4-methoxy-3-methylphenyl)bicyclo[2.2.2]octan-1-yl)methyl)carbamoyl)cyclohexyl 3-(dimethylamino)pyrrolidine- trans-1-carboxylate]", "EC50": "10 to 1000"},
      {"smiles": "CCC(C)(CC)n1cc(-c2ccnc(N(CC34CCC(c5ccc(OC)c(C)c5)(CC3)CC4)C(=O)[C@H]3CC[C@H](OC(=O)NCCCO)CC3)c2)cn1", "note": "[Compound 4.07, 4-(((4-(4-Methoxy-3-methylphenyl)bicyclo[2.2.2]octan-1-yl)methyl)(4-(1-(3-methylpentan-3-yl)-1H-pyrazol-4-yl)pyridin-2-yl)carbamoyl)cyclohexyl trans-(3-hydroxypropyl)carbamate]", "EC50": "≤ 10"},
      {"smiles": "COc1ccc(C23CCC(CN(c4cc(-c5cnc(C(C)(C)C)s5)ccn4)C(=O)[C@H]4CC[C@H](OC(=O)NCCCO)CC4)(CC2)CC3)cc1C", "note": "[Compound 2.02, 4-((4-(2-(tert-Butyl)thiazol-5-yl)pyridin-2-yl)((4-(4-methoxy-3-methylphenyl)bicyclo[2.2.2]octan-1-yl)methyl)carbamoyl) (trans-cyclohexyl) (3-hydroxypropyl)carbamate]", "EC50": "≤ 10"}
    ]}
  ]
}
